These results are taken from patent US8318898B2, “Synthetic peptides for use as inhibitors of neurotransmitter secretion and as inducers of cellular relaxation” (Universite de Lausanne, priority 2005, dated 2012).

This assay concerns PC12 cells. As to the kind of experiment: Inhibition of [3H]norepinephrine neurosecretion by PC12 cells. It is filed as cell-based, rat. As to conditions: for inhibition of secretion, stability test: 100 μM; for inhibition of neurotransmitter-evoked secretion: concentration not given, peptide alone; for level of inhibition maintained over the 48 hour period: cultured with PC12 cells for 48 hours in the presence or absence of serum, up to 90%. How it is done:
Using the neurosecretion assay described above, peptides fused to the TAT-PTD (L-TAT) were tested for inhibition of neurotransmitters and compared to use of L-TAT alone (SEQ ID NO: 3). In vitro screening for synthetic peptides capable of efficiently and selectively blocking neurotransmitter release in the PC12 cell line grown under defined conditions was performed.
PC12 cells were washed with DMEM-WM (Dulbecco's Modified Eagle Medium (GIBCO cat. no. 31968) completed with 25 units of penicillin and streptomycin each) and loaded for 1-2 h with [^3H] norepinephrine (NE; 0.5 μCi/ml) in DMEM-CM (DMEM-WM complemented with 6% horse serum and 6% fetal calf serum). Cells were washed for 1 h with DMEM-WM, and then washed 2 times at 5-minute intervals. Basal release was determined by a 15-minutes incubation with CaSB-glucose 5 mM K^+ (CaSB-glucose: 140 mM NaCl, 5 mM KCl, 2 mM CaCl2, 11 mM glucose, [pH 7.4]). The peptides were added to the cells at defined concentrations after loading with NE but before induction of secretion. Cells were depolarized with 85 mM K^+ (CaSB-glucose with Na^+ reduced accordingly) for 15 minutes to determine stimulated release. Superfusate (1 ml) was removed to tubes. Adherent cells were solubilized in CaSB-glucose-0.1% Triton (1 ml/well). The quantities of released and non-released radiolabeled neurotransmitter were determined by liquid scintillation counting of cleared superfusates and cell lysates, respectively. Total uptake was calculated by addition of released and retained radioactivity, and the percentage release was as calculated (released counts/total uptake counts)×100. Results were also expressed as percent inhibition of neurosecretion.

Regarding “L-Tat 49-86: SEQ ID NO: 4 (GRKKRRQRRRAHQNSQTHQASLSKQPTSQPRGDPTGKEG; Synthetic peptide L-Tat 49-86)”, the “inhibition of secretion, stability test” value reads like this: (0 hours) <20%; (1 hour) >10%; (24 hours) 26%; (48 hours) 25%; (No Serum) 50%.
In the case of GRRRRRRRRRGYG [Peptide 9Rrev-D], the “inhibition of neurotransmitter-evoked secretion” value is recorded as “approximately 57%” and the “level of inhibition maintained over the 48 hour period” value was “approximately 80%”.
As for GYGRRRRRRRRRG [Peptide 9R-D], the “inhibition of neurotransmitter-evoked secretion” value is “approximately 65%” and the “level of inhibition maintained over the 48 hour period” value was “approximately 80%”.
For “NH2-SNKTRIDEANQRATKMLGSG-COOH (H-SNKTRIDEANQRATKMLGSG-OH) [ESUP-A, reference compound]”, the “inhibition of neurotransmitter secretion (in words)” value was “only minimal inhibition”. The “inhibition of PC12 neurotransmitter secretion” value (peptide 100 μM) worked out at 20%.
“9R-L: SEQ ID NO: 5 (GYGRRRRRRRRRG; Synthetic peptide 9R-L)”: the “inhibition of neurotransmitter-evoked secretion” value was “approximately 70%” and the “level of inhibition maintained over the 48 hour period” value is “approximately 80%”.
Consider “L-Tat-3D-MRP: SEQ ID NO: 10 (GYGRKKRRQRRRGKKKKKFDFKKPFKLDGLDFKRNRK; Synthetic peptide L-Tat-3DMRPED)”, for which the “dose dependence of inhibition of neurosecretion” value is “dose dependent inhibition”.
With “9R-L-Ac-am: SEQ ID NO: 11 (Ac-GYGRRRRRRRRRG-NH2) [Peptide 9R-L-Ac-am]”, the “inhibition of neurotransmitter-evoked secretion” value was “approximately 67%” and the “level of inhibition maintained over the 48 hour period” value is listed as “approximately 80%”.
“MRPEDpep: SEQ ID NO: 7 (KKKKKFSFKKPFKLSGLSFKRNRK; Synthetic peptide MRPED)”: the “dose dependence of inhibition of neurosecretion” value is “dose dependent inhibition”. In addition, where the note is “0 hours”, the “inhibition of secretion, stability test” value is on record as >20%. Besides, for the setting “1 hour”, the “inhibition of secretion, stability test” value was 23%. In addition, the “inhibition of secretion, stability test” value (24 hours) amounted to 15%. Further, the “inhibition of secretion, stability test” value (No Serum) was 17%.
As for “L-Tat-ESUP-A: SEQ ID NO: 1; ESUP-A fused to the TAT-PTD (GYGRKKRRQRRRGSNKTRIDEANQRATKMLGSG; Synthetic peptide L-Tat-ESUP-A)”, the “dose dependence of inhibition of neurosecretion” value is given as “dose dependent inhibition”. The “inhibition of PC12 neurotransmitter secretion” value (peptide 10 μM) was determined as 30%. In addition, for the setting “peptide 50 μM”, the “inhibition of PC12 neurotransmitter secretion” value came to 40%. Moreover, the “inhibition of PC12 neurotransmitter secretion” value (peptide 100 μM) is given as 50%. Further, the “inhibition of PC12 neurotransmitter secretion” value (peptide 250 μM) came out at 70%.
With “L-Tat-MRP: SEQ ID NO: 9 (GYGRKKRRQRRRGKKKKKFSFKKPFKLSGLSFKRNRK; Synthetic peptide L-Tat-MRPED)”, the “dose dependence of inhibition of neurosecretion” value was “dose dependent inhibition”.
The same measure, in the same setting: with “3D-MRP: SEQ ID NO: 8 (KKKKKFDFKKPFKLDGLDFKRNRK; Synthetic peptide 3DMRPED) [Peptide 3D-MRP]” the entry was “dose dependent inhibition”.
Take “9R-MRP: SEQ ID NO: 22; fusion peptide (GYGRRRRRRRRRGKKKKKKFSFKKPFKLSGLSFKRNRK; Synthetic peptide 9R-MRP)”: the inhibition of secretion result (50 μM (mixture: 50 μM each)) is on record as “approximately 70%”.
